Laboratory results published in ChEMBL document CHEMBL1138084, “Synthesis and SAR of novel histamine H3 receptor antagonists” (Bioorg Med Chem Lett, 2006).

Experiments:
[1] = biological target: Histamine H3 receptor (Homo sapiens, UniProt Q9Y5N1); experiment: Displacement of [3H]N-alpha-methylhistamine from human cloned H3 receptor
[2] = biological target: Histamine H3 receptor (Rattus norvegicus, UniProt Q9QYN8); experiment: Displacement of [3H]N-alpha-methylhistamine from rat cloned H3 receptor
Sequence of Histamine H3 receptor (Rattus norvegicus, UniProt Q9QYN8) (Q9QYN8 whole entry): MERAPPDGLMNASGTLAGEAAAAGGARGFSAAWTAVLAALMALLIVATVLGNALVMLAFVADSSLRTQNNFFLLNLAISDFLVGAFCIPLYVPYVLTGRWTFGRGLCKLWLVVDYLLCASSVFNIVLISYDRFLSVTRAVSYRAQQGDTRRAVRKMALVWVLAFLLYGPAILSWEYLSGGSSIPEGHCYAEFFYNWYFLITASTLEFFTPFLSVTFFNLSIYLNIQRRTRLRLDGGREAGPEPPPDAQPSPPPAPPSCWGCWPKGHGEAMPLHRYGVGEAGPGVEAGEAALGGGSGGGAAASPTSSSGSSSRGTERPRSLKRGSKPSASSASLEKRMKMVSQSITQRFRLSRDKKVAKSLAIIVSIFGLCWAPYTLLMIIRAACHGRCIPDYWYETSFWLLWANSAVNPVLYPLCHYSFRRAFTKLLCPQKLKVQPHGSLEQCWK

[3] = Inhibition of [3H]R-alpha-methylhistamine binding to brain of po dosed rat; format: functional, organism-based
[4] = Oral bioavailability in rat at 10 mg/kg; format: ADME, organism-based; conditions: in vivo

Sequence of Histamine H3 receptor (Homo sapiens, UniProt Q9Y5N1) (Q9Y5N1 whole entry): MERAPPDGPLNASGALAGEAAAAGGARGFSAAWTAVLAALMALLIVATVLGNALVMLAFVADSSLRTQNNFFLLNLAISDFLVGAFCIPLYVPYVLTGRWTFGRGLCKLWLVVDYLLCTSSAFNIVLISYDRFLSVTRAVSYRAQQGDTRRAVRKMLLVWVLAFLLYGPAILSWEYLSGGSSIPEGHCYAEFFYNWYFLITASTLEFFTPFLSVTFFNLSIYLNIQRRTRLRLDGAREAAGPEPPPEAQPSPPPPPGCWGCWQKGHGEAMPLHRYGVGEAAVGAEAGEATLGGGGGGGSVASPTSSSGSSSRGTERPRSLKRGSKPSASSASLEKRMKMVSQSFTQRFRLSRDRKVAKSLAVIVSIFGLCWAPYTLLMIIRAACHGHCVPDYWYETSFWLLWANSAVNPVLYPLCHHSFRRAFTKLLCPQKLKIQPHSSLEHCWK

CS(=O)(=O)N1CCCc2cc(OCCCN3CCCCC3)ccc2C1
Ki ([1]; read-out: Ki): 2.9 nM
Ki [2]: 70.1 nM

CCN1CCc2ccc(OCCCN3CCCCC3)cc2CC1
Ki ([1]; read-out: Ki): 0.26 nM
Ki [2]: 1.1 nM

O=C(c1cccs1)N1CCc2cccc(OCCCN3CCCCC3)c2C1
Ki ([1]; read-out: Ki): > 300 nM

c1cc2c(cc1OCCCN1CCCCC1)NCCC2
Ki ([1]; read-out: Ki): 129 nM

CCN1CCCc2cc(OCCCN3CCCCC3)ccc2C1
Ki ([1]; read-out: Ki): 0.34 nM
Ki [2]: 0.56 nM

c1ccc(CN2CCCc3cc(OCCCN4CCCCC4)ccc3C2)cc1
Ki ([1]; read-out: Ki): 0.2 nM
Ki [2]: 0.8 nM

O=C(c1cccs1)N1CCCc2ccc(OCCCN3CCCCC3)cc21
Ki ([1]; read-out: Ki): 22.6 nM

CC(C)N1CCc2ccc(OCCCN3CCCCC3)cc2C1
Ki ([1]; read-out: Ki): 0.17 nM
Ki [2]: 0.89 nM

CCN1CCCc2cc(OCCCN3CCCCC3)ccc21
Ki ([1]; read-out: Ki): 41 nM

CC(C)NC(=O)N1CCc2ccc(OCCCN3CCCCC3)cc2C1
Ki ([1]; read-out: Ki): 4.9 nM
Ki [2]: 39.6 nM

CS(=O)(=O)N1CCc2ccc(OCCCN3CCCCC3)cc2C1
Ki ([1]; read-out: Ki): 23.8 nM
Ki [2]: 74.5 nM

O=S(=O)(c1ccccc1)N1CCCc2cc(OCCCN3CCCCC3)ccc21
Ki ([1]; read-out: Ki): 18 nM

c1cc2c(cc1OCCCN1CCCCC1)CNCC2
Ki ([1]; read-out: Ki): 0.6 nM

CCN1CCc2cccc(OCCCN3CCCCC3)c2C1
Ki ([1]; read-out: Ki): 95.2 nM

CC(C)NC(=O)N1CCCc2cc(OCCCN3CCCCC3)ccc2C1
Ki ([1]; read-out: Ki): 17.1 nM
Ki [2]: 32.5 nM

CS(=O)(=O)N1CCc2ccc(OCCCN3CCCCC3)cc2CC1
Ki ([1]; read-out: Ki): 12.1 nM
Ki [2]: 38.1 nM

O=S(=O)(c1ccccc1)N1CCCc2ccc(OCCCN3CCCCC3)cc21
Ki ([1]; read-out: Ki): 7.3 nM

c1cc2c(c(OCCCN3CCCCC3)c1)CCNC2
Ki ([1]; read-out: Ki): > 300 nM

c1cc2c(cc1OCCCN1CCCCC1)CCNC2
Ki [1]: 2.4

O=C(c1cccs1)N1CCc2c(cccc2OCCCN2CCCCC2)C1
Ki ([1]; read-out: Ki): > 300 nM

O=S(=O)(c1ccccc1)N1CCCc2cccc(OCCCN3CCCCC3)c21
Ki ([1]; read-out: Ki): > 300 nM

O=S(=O)(c1ccccc1)N1CCc2c(cccc2OCCCN2CCCCC2)C1
Ki ([1]; read-out: Ki): > 300 nM

CC(C)N1CCc2ccc(OCCCN3CCCCC3)cc2CC1
Ki ([1]; read-out: Ki): 0.72 nM
Ki [2]: 1.6 nM

CCN1CCCc2c(OCCCN3CCCCC3)cccc21
Ki ([1]; read-out: Ki): > 300 nM

CC(C)N1CCCc2cc(OCCCN3CCCCC3)ccc2C1
Ki ([1]; read-out: Ki): 0.2 nM
Ki [2]: 1.29 nM
IC50 [3]: 5.3 mg/kg
bioavailability [4]: ≥ 100%

c1cc2c(cc1OCCCN1CCCCC1)CCCN2CC1CCCCC1
Ki ([1]; read-out: Ki): 31 nM

CC(=O)N1CCc2ccc(OCCCN3CCCCC3)cc2CC1
Ki ([1]; read-out: Ki): 11.6 nM
Ki [2]: 48.8 nM

c1cc2c(cc1OCCCN1CCCCC1)N(CC1CCCCC1)CCC2
Ki ([1]; read-out: Ki): 187 nM

O=C(c1cccs1)N1CCc2ccc(OCCCN3CCCCC3)cc2C1
Ki ([1]; read-out: Ki): 8.1 nM

O=S(=O)(c1ccccc1)N1CCc2cc(OCCCN3CCCCC3)ccc2C1
Ki ([1]; read-out: Ki): 7.4 nM

c1cc(OCCCN2CCCCC2)c2c(c1)N(CC1CCCCC1)CCC2
Ki ([1]; read-out: Ki): 141 nM

CCN1CCCc2ccc(OCCCN3CCCCC3)cc21
Ki ([1]; read-out: Ki): 156 nM

c1cc2c(cc1OCCCN1CCCCC1)CN(CC1CCCCC1)CC2
Ki ([1]; read-out: Ki): 0.35 nM
Ki [2]: 0.46 nM

c1cc2c(c(OCCCN3CCCCC3)c1)CCCN2
Ki ([1]; read-out: Ki): > 300 nM

c1cc2c(c(OCCCN3CCCCC3)c1)N(CC1CCCCC1)CCC2
Ki ([1]; read-out: Ki): > 300 nM

CC(=O)N1CCc2ccc(OCCCN3CCCCC3)cc2C1
Ki ([1]; read-out: Ki): 19.4 nM
Ki [2]: 36.7 nM

CCN1CCc2cc(OCCCN3CCCCC3)ccc2C1
Ki ([1]; read-out: Ki): 0.54 nM

c1cc2c(c(OCCCN3CCCCC3)c1)CNCC2
Ki ([1]; read-out: Ki): 154 nM

CCN1CCc2c(cccc2OCCCN2CCCCC2)C1
Ki ([1]; read-out: Ki): 84.2 nM

c1cc2c(cc1OCCCN1CCCCC1)CCN(CC1CCCCC1)C2
Ki ([1]; read-out: Ki): 1.01 nM

c1cc2c(c(OCCCN3CCCCC3)c1)NCCC2
Ki ([1]; read-out: Ki): > 300 nM

CCN1CCCc2cccc(OCCCN3CCCCC3)c21
Ki ([1]; read-out: Ki): > 300 nM

c1cc2c(cc1OCCCN1CCCCC1)CCN(CC1CCCCC1)CC2
Ki ([1]; read-out: Ki): 0.53 nM
Ki [2]: 0.97 nM

O=C(c1cccs1)N1CCc2cc(OCCCN3CCCCC3)ccc2C1
Ki ([1]; read-out: Ki): 2.1 nM

CC(C)NC(=O)N1CCc2ccc(OCCCN3CCCCC3)cc2CC1
Ki ([1]; read-out: Ki): 42.3 nM

CCN1CCc2ccc(OCCCN3CCCCC3)cc2C1
Ki ([1]; read-out: Ki): 0.34 nM
Ki [2]: 0.64 nM
IC50 [3]: 1.1 mg/kg
bioavailability [4]: 69%

O=S(=O)(c1ccccc1)N1CCc2cccc(OCCCN3CCCCC3)c2C1
Ki ([1]; read-out: Ki): > 300 nM

O=S(=O)(c1ccccc1)N1CCc2ccc(OCCCN3CCCCC3)cc2C1
Ki ([1]; read-out: Ki): 0.53 nM

O=C(c1cccs1)N1CCCc2cccc(OCCCN3CCCCC3)c21
Ki ([1]; read-out: Ki): > 300 nM

c1cc2c(c(OCCCN3CCCCC3)c1)CCN(CC1CCCCC1)C2
Ki ([1]; read-out: Ki): 15.4 nM

c1cc2c(c(OCCCN3CCCCC3)c1)CN(CC1CCCCC1)CC2
Ki ([1]; read-out: Ki): 59 nM

c1cc2c(cc1OCCCN1CCCCC1)CCCN2
Ki ([1]; read-out: Ki): 54 nM
